Measured values as given in US12502386B2, “Nitrogen-containing heterocyclic compound and use thereof” (SHANGHAI SHIJIANG BIOTECHNOLOGY CO., LTD, priority 2022, dated 2025).
Like-named read-outs stand apart in the source and are kept apart here.

Columns and labels:
[1] = tested on: 786-O; test: CellTiter-Glo cell viability, tumor cell line 786-O; format: cell-based; conditions: Homo sapiens, 786-0, 72 h; clear cell renal cell adenocarcinoma cell; 3 days of culture; read-out: inhibitory effect on 786-O (IC50)
Protocol: (§1) Cell viability was detected using the Promega CellTiter-Glo kit, cell viability was determined by directly measuring intracellular ATP content. In the experiment, the IC50 value of the compounds prepared in the Examples of the present invention on various tumor cell lines was detected.
(§2) Each tumor cell was cultured in relevant medium. After cell passage, the gradient diluted compounds prepared in the Examples of the present invention was added. After 3 days of culture, the relevant IC50 (50% inhibiting concentration) was measured. The name, source and culture conditions of each tumor cell line were as follows:
Cell line 786-0 (ATCC, No. CRL-1932) was cultured in 10% fetal bovine serum-containing RPMI164B medium (+P/S).

[2] = tested on: NB-1; test: CellTiter-Glo cell viability, brain tumor cell line NB-1; format: cell-based; conditions: Homo sapiens, NB1, 72 h; brain neuroblastoma cell; 3 days of culture; read-out: inhibitory effect on NB-1 (IC50)
Protocol: (§3) Cell viability was detected using the Promega CellTiter-Glo kit, cell viability was determined by directly measuring intracellular ATP content. In the experiment, the IC50 value of the compounds prepared in the Examples of the present invention on various brain tumor cell lines was detected.
as §2, with “follows: […]” for “follows:”

[3] = tested on: NCI-H82; test: CellTiter-Glo cell viability, tumor cell line NCI-H82; format: cell-based; conditions: NCI-H82, 72 h; human small cell lung cancer cell; 3 days of culture; read-out: inhibitory effect on NCI-H82 (IC50)
Protocol: as §1, §2
Cell line NCI-H82 (ATCC, No. HTB-175) was cultured in 10% fetal bovine serum-containing RPMI1640 medium (+P/S).

[4] = tested on: CFPAC-1; test: CellTiter-Glo cell viability, tumor cell line CFPAC-1; format: cell-based; conditions: CFPAC-1, 72 h; human pancreatic cancer cell; 3 days of culture; read-out: inhibitory effect on CFPAC-1 (IC50)
Protocol: as §1, §2
Cell line CFPAC-1 (ATCC, No. CRL-1918) was cultured in 10% fetal bovine serum-containing IMDM medium (+P/S).

[5] = tested on: Kelly; test: CellTiter-Glo cell viability, brain tumor cell line Kelly; format: cell-based; conditions: Homo sapiens, 72 h, brain neuroblastoma cell, 3 days of culture, read-out: inhibitory effect on Kelly (IC50)
Protocol: as §3, §2
Cell line Kelly (ECACC, No. 92110411) was cultured in 10% fetal bovine serum and 2 mM glutamine-containing RPMI1640 medium.

[6] = tested on: GB-1; test: CellTiter-Glo cell viability, tumor cell line GB-1; format: cell-based; conditions: GB-1, 72 h; human brain glioblastoma cell; 3 days of culture; read-out: inhibitory effect on GB-1 (IC50)
Protocol: as §1, §2
Cell line GB-1 (JCRB, No. IFO50489) was cultured in 10% fetal bovine serum-containing DMEM medium (+P/S).
as §3

[7] = tested on: G-401; test: CellTiter-Glo cell viability, tumor cell line G-401; format: cell-based; conditions: G-401, 72 h; human renal carcinoma Wilms cell; 3 days of culture; read-out: inhibitory effect on G-401 (IC50)
Protocol: as §1, §2
Cell line G-401 (ATCC, No. CRL-1441) was cultured in 10% fetal bovine serum-containing McCoy's 5a medium (+P/S).

[8] = tested on: D341 Med; test: CellTiter-Glo cell viability, brain tumor cell line D341 Med; format: cell-based; conditions: Homo sapiens, 72 h, cerebellar medulloblastoma cell, 3 days of culture, read-out: inhibitory effect on D341 Med (IC50)
Protocol: as §3, §2
Cell line D341 Med (ATCC, No. HTB-187) was cultured in 20% fetal bovine serum-containing EMEM medium (+P/S).

[9] = tested on: ov-NNMT NCI-H82 cell; test: CellTiter-Glo cell viability, ov-NNMT NCI-H82 cell (NNMT overexpressed); format: cell-based, human; conditions: intracellular ATP, read-out: inhibitory effect on OV-NNMT NCI-H82 (IC50)
[10] = tested on: SW48; test: CellTiter-Glo cell viability, tumor cell line SW48; format: cell-based; conditions: SW48, 72 h; human colon adenocarcinoma cell; 3 days of culture; read-out: inhibitory effect on SW48 (IC50)
Protocol: as §1, §2
Cell line SW48 (ATCC, No. CCL-231) was cultured in 10% fetal bovine serum-containing Leibovitz's L-15 medium (+P/S).

[11] = tested on: MDA-MB-453; test: CellTiter-Glo cell viability, tumor cell line MDA-MB-453; format: cell-based; conditions: Homo sapiens, MDA-MB-453, 72 h; breast cancer cell; 3 days of culture; read-out: inhibitory effect on MDA-MB-453 (IC50)
Protocol: as §1
as §2, with “follows: […]” for “follows:”

[12] = tested on: SF-126; test: CellTiter-Glo cell viability, tumor cell line SF-126; format: cell-based; conditions: SF-126, 72 h, read-out: inhibitory effect on SF-126 (IC50); human glioblastoma multiforme cell; 3 days of culture
Protocol: as §1, §2
Cell line SF126 (JCRB, No. IFO50286) was cultured in 10% fetal bovine serum-containing EMEM medium (+P/S).
as §3

[13] = tested on: sh-DNMT1 NCI-H82 cell; test: CellTiter-Glo cell viability, sh-DNMT1 NCI-H82 cell (DNMT1 knocked down); format: cell-based, human; conditions: Homo sapiens, NCI-H82, NCI-H82 with DNMT1 knocked down by shRNA, intracellular ATP, read-out: inhibitory effect on sh-DNMT1 NCI-H82 (IC50)
[14] = tested on: Con-NCI-H82 cell; test: CellTiter-Glo cell viability, Con-NCI-H82 cell (empty-vector control); format: cell-based, human; conditions: Homo sapiens, NCI-H82, NCI-H82 transfected with empty virus vector (control), intracellular ATP, read-out: inhibitory effect on Con-NCI-H82 (IC50)
[15] = Homo sapiens, NCI-H82, NCI-H82 overexpressing NNMT protein

Row | IC50 [13] [µM] | IC50 [14] [µM] | IC50 [9, 15] [µM] | Compound | IC50 [1] [µM] | IC50 [2] [µM] | IC50 [3] [µM] | IC50 [4] [µM] | IC50 [5] [µM] | IC50 [6] [µM] | IC50 [7] [µM] | IC50 [8] [µM] | IC50 ([9]; NCI-H82 overexpressing NNMT protein) [µM] | IC50 [10] [µM] | IC50 [11] [µM] | IC50 [12] [µM]
1 |  |  |  | COc1ccc2c(c1OC)C(C1CCCC1)N1CCc3cc4c(cc3C1=C2)OCO4 (stereo not shown) [AB31900] | 15.7 | 0.88 | 1.08 | 18.3 | 1.12 | > 30 | 1.32 | 0.98 | 4.88 | 1.28 | 1.46 | 20.1
2 | 5.32 | 0.79 | 3.52 | COc1ccc2c(c1OC)C(C(Cl)(Cl)Cl)N1CCc3cc4c(cc3C1=C2CCCCc1ccccc1)OCO4 (stereo not shown) [AB35469] |  |  |  |  |  |  |  |  |  |  |  | 
3 | 16.4 | 5.55 | 13.4 | CCCCN1CCN(c2c(OC)ccc3c2C(C(Cl)(Cl)Cl)N2CCc4cc5c(cc4C2=C3)OCO5)CC1 (stereo not shown) [AB35445] |  |  |  |  |  |  |  |  |  |  |  | 
4 | 4.48 | 1.01 | 3.56 | COc1ccc2c(c1OCCCBr)C(C(Cl)(Cl)Cl)N1CCc3cc4c(cc3C1=C2)OCO4 (stereo not shown) [AB35466] |  |  |  |  |  |  |  |  |  |  |  | 
5 | 24.3 | 26.2 | 25.7 | COc1ccc2c(c1OC)C(C(Cl)(Cl)Cl)N1CCc3cc4c(cc3C1=C2Cc1ccccn1)OCO4 (stereo not shown) [AB35447] |  |  |  |  |  |  |  |  |  |  |  | 
6 | 8.84 | 2.69 | 9.32 | COc1ccc2c(c1N1CCC(NC(=O)OC(C)(C)C)CC1)C(C(Cl)(Cl)Cl)N1CCc3cc4c(cc3C1=C2)OCO4 (stereo not shown) [AB35465] |  |  |  |  |  |  |  |  |  |  |  | 
7 | 3.22 | 0.72 | 2.12 | COc1ccc2c(c1OC/C=C(\C)CCC=C(C)C)C(C1CCCC1)N1CCc3cc4c(cc3C1=C2)OCO4 (stereo not shown) [AB35438] |  |  |  |  |  |  |  |  |  |  |  | 
8 | 8.34 | 2.08 | 5.32 | COc1ccc2c(c1Cl)CN1CCc3cc4c(cc3C1=C2)OCO4 [AB36450] |  |  |  |  |  |  |  |  |  |  |  | 
9 | 2.98 | 0.74 | 3.12 | CCCCCCC1=C2c3cc4c(cc3CCN2C(C(Cl)(Cl)Cl)c2c1ccc(OC)c2OC)OCO4 (stereo not shown) [AB35508] |  |  |  |  |  |  |  |  |  |  |  | 
10 | 3.56 | 0.82 | 3.78 | CCCCCCC1=C2c3cc4c(cc3CCN2C(C2CCCC2)c2c1ccc(OC)c2OC)OCO4 (stereo not shown) [AB35489] |  |  |  |  |  |  |  |  |  |  |  | 
11 | 2.12 | 0.46 | 1.56 | CCCCCCC1c2c(ccc3c2OCO3)C=C2c3cc4c(cc3CCN21)OCO4 (stereo not shown) [AB35426] |  |  |  |  |  |  |  |  |  |  |  | 
12 | 3.24 | 0.56 | 1.82 | CC1c2c(ccc3c2OCO3)C(CCCc2ccccc2)=C2c3cc4c(cc3CCN21)OCO4 (stereo not shown) [AB35427] |  |  |  |  |  |  |  |  |  |  |  | 
13 | 2.07 | 0.68 | 1.53 | COc1ccc2c(c1OC)C(C)N1CCc3cc4c(cc3C1=C2CCCc1ccccc1)OCCO4 (stereo not shown) [AB35493] |  |  |  |  |  |  |  |  |  |  |  | 

Row | Compound | IC50 [13] [µM] | IC50 [14] [µM] | IC50 [9, 15] [µM] | IC50 [1] [µM] | IC50 [2] [µM] | IC50 [3] [µM] | IC50 [4] [µM] | IC50 [5] [µM] | IC50 [6] [µM] | IC50 [7] [µM] | IC50 [8] [µM] | IC50 ([9]; NCI-H82 overexpressing NNMT protein) [µM] | IC50 [10] [µM] | IC50 [11] [µM] | IC50 [12] [µM]
14 | COc1ccc2c(c1OC/C=C(\C)CCC=C(C)C)C(C(Cl)(Cl)Cl)N1CCc3cc4c(cc3C1=C2)OCO4 (stereo not shown) [AB35405] | 3.86 | 0.92 | 2.13 | 13.1 | 2.46 | 0.92 | 18.3 | 3.12 | 16 | 0.88 | 0.76 |  | 2.34 | 1.76 | 20.3
15 | CCCOc1c(OC)ccc2c1C(C1CCCC1)N1CCc3cc4c(cc3C1=C2)OCO4 (stereo not shown) [AB35512] | 2.32 | 0.62 | 2.42 | 15.3 | 1.56 | 0.62 | 17.3 | 4.23 | 23.5 | 1.33 | 2.01 |  | 2.02 | 1.56 | 18.1
16 | CCCC1=C2c3cc4c(cc3CCN2C(C2CCCC2)c2c1ccc(OC)c2OC)OCO4 (stereo not shown) [AB35504] | 6.76 | 2.22 | 4.96 | 20.4 | 3.58 | 2.22 | 25.6 | 3.03 | > 30 | 3.12 | 1.58 |  | 3.56 | 1.96 | > 30
17 | COc1ccc2c(c1OCCCF)CN1CCc3cc4c(cc3C1=C2)OCO4 [AB35590] | 4.04 | 1.52 | 4.68 | 13.9 | 1.99 | 1.52 | 15.3 | 3.16 | 22.5 | 2.66 | 2.78 |  | 2.15 | 1.98 | 17.7
18 | COc1ccc2c(c1OC)C(C1CCCCC1)N1CCc3cc4c(cc3C1=C2)OCO4 (stereo not shown) [AB31893] | 5.68 | 1.12 | 4.12 | 9.72 | 1.88 | 1.12 | 10.9 | 2.09 | 15.5 | 1.44 | 1.46 |  | 1.85 | 1.68 | 12.3
19 | COc1ccc2c(c1OCCCc1ccccc1)C(C(Cl)(Cl)Cl)N1CCc3cc4c(cc3C1=C2)OCO4 (stereo not shown) [AB35525] | 3.15 | 0.51 | 2.02 | 14 | 1.88 | 0.51 | 16.2 | 3.12 | > 30 | 0.98 | 0.96 |  | 2.34 | 1.68 | 19.8
20 | C=CCOc1c(OC)ccc2c1C(C(Cl)(Cl)Cl)N1CCc3cc4c(cc3C1=C2)OCO4 (stereo not shown) [AB35534] | 3.84 | 1.32 | 3.96 | 14.3 | 1.58 | 1.32 | 16.9 | 2.09 | 20.2 | 2.03 | 3.12 |  | 2.45 | 1.88 | 19
21 | COc1ccc2c(c1OC)C(C(Cl)(Cl)Cl)N1CCc3cc4c(cc3C1=C2CCCc1ccccc1)OCO4 (stereo not shown) [AB35417] | 3.12 | 0.57 | 1.78 | 10.2 | 2.39 | 0.57 | 9.88 | 1.24 | 14.1 | 1.11 | 0.88 |  | 0.98 | 1.32 | 12.3
